Test results as given in paper PMC3388080 (PLoS ONE, 2012).

How the values were obtained:
[1] = test system: panel of 79 target receptors; assay: CEREP selectivity screen, panel of 79 target receptors; format: binding; conditions: 10 µM; all targets except A2A, A3, MT3, P2Y, 5HT2C
Method: (§1) SB-334867 was evaluated in a selectivity screen performed at CEREP (Paris, France). The screen consisted of binding assays on a panel of 79 target receptors. The specific binding (SB) of a radioligand to each target receptor was defined as the difference between the total binding and the nonspecific binding determined in the presence of a cold competitor in excess. […] Details on the CEREP screen are available from www.cerep.fr.
Among the 79 receptors tested, 30 were peptide receptors. […] The selectivity profiles of almorexant and EMPA [37] have been reported previously.

[2] = test system: TNF-alpha (h); assay: CEREP radioligand binding; parameters: species or system human; conditions: % of control specific binding
Method: as §1

[3] = target: T1, rHCRTR1 (Rattus norvegicus, UniProt P56718); assay: Inhibition of [^3H]almorexant binding to HEK293-rHCRTR1 membranes
T1 construct: expressed in transfected cells; host or cells: HEK293 (transient transfection, pCI-Neo vector), membrane preparation
T1 sequence (P56718 1-416): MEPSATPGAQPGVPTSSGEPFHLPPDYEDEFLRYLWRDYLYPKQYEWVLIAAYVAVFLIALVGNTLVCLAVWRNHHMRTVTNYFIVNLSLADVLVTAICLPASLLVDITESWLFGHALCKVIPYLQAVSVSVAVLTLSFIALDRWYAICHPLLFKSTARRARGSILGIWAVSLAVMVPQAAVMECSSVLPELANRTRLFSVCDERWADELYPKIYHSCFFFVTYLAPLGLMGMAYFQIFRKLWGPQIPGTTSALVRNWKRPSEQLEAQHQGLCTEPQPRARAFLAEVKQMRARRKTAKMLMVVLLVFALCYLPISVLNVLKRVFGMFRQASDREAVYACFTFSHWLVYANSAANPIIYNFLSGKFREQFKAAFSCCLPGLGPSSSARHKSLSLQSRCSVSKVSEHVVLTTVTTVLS
Source text: (§2) The rat cDNAs encoding HCRTR1 (Accession No. P56718) and HCRTR2 (Accession No. P56719) were subcloned into pCI-Neo expression vectors (Promega, Madison, WI) and used to transfect HEK293 cells (acquired commercially from ATCC-LGC, Molsheim, France) as previously described.

[4] = target: T2, rHCRTR2 (Rattus norvegicus, UniProt P56719); assay: Inhibition of [^3H]almorexant binding to HEK293-rHCRTR2 membranes
T2 construct: expressed in transfected cells; host or cells: HEK293 (transient transfection, pCI-Neo vector), membrane preparation
Source text: as §2

[5] = target: T3, HCRTR2 (Rattus norvegicus, UniProt P56719); assay: HCRTR2 occupancy, [^3H]EMPA autoradiography of brain sections; format: in vivo; conditions: 30 mg/kg ip; for receptor occupancy at 30 mg/kg: rat, ip, 12 h
T3 construct: from tissue; host or cells: coronal brain sections of male Sprague-Dawley rats (TMN, DRN, CC, CA3, RSC, Pn)
T3 sequence (P56719 1-460): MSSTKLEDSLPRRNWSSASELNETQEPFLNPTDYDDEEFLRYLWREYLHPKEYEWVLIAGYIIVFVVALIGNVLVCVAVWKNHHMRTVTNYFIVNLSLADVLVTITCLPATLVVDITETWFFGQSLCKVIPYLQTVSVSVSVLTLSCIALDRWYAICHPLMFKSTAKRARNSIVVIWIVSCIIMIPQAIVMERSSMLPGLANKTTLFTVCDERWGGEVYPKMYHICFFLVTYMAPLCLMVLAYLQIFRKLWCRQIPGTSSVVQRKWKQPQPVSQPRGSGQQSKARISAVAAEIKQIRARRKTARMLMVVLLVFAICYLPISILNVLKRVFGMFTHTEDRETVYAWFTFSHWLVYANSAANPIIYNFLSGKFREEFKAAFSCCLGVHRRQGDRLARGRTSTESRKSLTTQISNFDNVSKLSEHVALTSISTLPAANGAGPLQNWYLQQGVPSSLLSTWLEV

[6] = target: hHCRTR1; parameters: method as in PMID 9821961; conditions: 37°C; cited from earlier work

SMILES	activity at all other targets tested [1]	% Control (10 µM) Mean SB [2]	Ki [3]	Ki [4]	HCRTR2 RO ([5]; all 6 structures, within 30 min, maximal at 2 h and 4 h)	receptor occupancy at 30 mg/kg ([5]; CA3)	receptor occupancy at 30 mg/kg ([5]; CC)	receptor occupancy at 30 mg/kg ([5]; DRN)	receptor occupancy at 30 mg/kg ([5]; Pn)	receptor occupancy at 30 mg/kg ([5]; RSC)	receptor occupancy at 30 mg/kg ([5]; TMN)	Ki [6]
Cc1nc2ccc(NC(=O)Nc3ccnc4cccnc34)cc2o1.Cl [SB-334867, 1-(2-methylbenzoxazol-6-yl)-3-[1], [5]naphthyridin-4-yl-urea hydrochloride]	< 40%	96.8%										
CNC(=O)[C@@H](c1ccccc1)N1CCc2cc(OC)c(OC)cc2[C@@H]1CCc1ccc(C(F)(F)F)cc1 [almorexant, (2R)-2-[(1S)-6,7-Dimethoxy-1-[2-(4-trifluoromethyl-phenyl)-ethyl]-3,4-dihydro-1H-isoquinolin-2-yl]-N-methyl-2-phenyl-acetamide]			7.1 ± 0.7 nM	2 nM	~100%	58.4 ± 11.5%	66.1 ± 11.6%	57.7 ± 10.5%	67.2 ± 13.9%	64.6 ± 10.7%	49.2 ± 13.2%	4.7 nM
